In ChEMBL document CHEMBL1126639, “Centrally acting serotonergic and dopaminergic agents. 2. Synthesis and structure-activity relationships of 2,3,3a,4,9,9a-hexahydro-1H-benz[f]indole derivatives” (J Med Chem, 1993):
Values joined by “and” are separate entries in the source; they are usually repeats but may differ in a detail not shown here. Equal entries are not always repeated. Active and inactive are the calls of the source. The rule behind the calls is not given here.

Experiments:
[1] = molecular target: T1, D(2) dopamine receptor (Rattus norvegicus, UniProt P61169); assay: Binding affinity for [3H]raclopride-labeled dopamine receptor D2 in rat striatum; type: tissue-based
[2] = molecular target: T1, D(2) dopamine receptor; assay: Inhibitory concentration against [3H]raclopride-labeled dopamine receptor D2 in rat striatum; type: tissue-based
[3] = test system: Mus musculus; assay: Time of effect in the face-to-face behavioral assay in the mouse when a dose of 0.3 micro mol/kg is administered perorally; type: functional
[4] = test system: Mus musculus; assay: Time of effect in the face-to-face behavioral assay in the mouse when a dose of 0.0 micro mol/kg is administered perorally; type: functional
[5] = test system: Mus musculus; assay: Effective dose on hypothermia in mouse when administered subcutaneously; type: functional; details: Mus musculus, sc; read-out: ED50
[6] = test system: Mus musculus; assay: Maximum decrease in temperature when compound is administered through peroral route; type: functional
[7] = test system: Mus musculus; assay: Time of effect in the face-to-face behavioral assay in the mouse when a dose of 34 micro mol/kg is administered perorally; type: functional
[8] = test system: Mus musculus; assay: Time of effect in the face-to-face behavioral assay in the mouse when a dose of 3.4 micro mol/kg is administered perorally; type: functional
[9] = test system: Mus musculus; assay: Maximum decrease in temperature when compound is administered subcutaneously; type: functional
[10] = test system: Mus musculus; assay: Time of effect in the isolation-induced aggression behavioral assay in the mouse when a dose of 3.4 micro mol/kg is administered perorally; type: functional
[11] = molecular target: T1, D(2) dopamine receptor; assay: Compound was evaluated for the binding affinity against [3H]raclopride-labeled dopamine receptor D2 in rat striatum; type: tissue-based
[12] = test system: Mus musculus; assay: Effective dose on hypothermia in mouse when administered through peroral route; type: functional; details: Mus musculus, po; read-out: ED50
[13] = test system: Mus musculus; assay: Time of effect in the isolation-induced aggression behavioral assay in the mouse when a dose of 10 micro mol/kg is administered perorally; type: functional
[14] = molecular target: D(2) dopamine receptor (Homo sapiens, UniProt P14416); assay: Intrinsic activity from GTP shift using CHO cell membranes expressing dopamine receptor D2; type: functional
[15] = molecular target: Sodium-dependent dopamine transporter (Rattus norvegicus) (UniProt P23977); assay: Inhibition of firing rates of dopaminergic neurons in the substantia nigra pars compacta by intravenous injection in rats; type: functional, tissue-based
[16] = test system: Felis catus; assay: Effective dose at which the sympathetic nerve activity (SND) has been reduced to 50% of the pretreatment value in anesthetized cat; In active; type: functional, organism-based
[17] = organism: Mus musculus; assay: Time of effect in the face-to-face behavioral assay in the mouse […]; type: functional
[18] = test system: Mus musculus; assay: Time of effect in the face-to-face behavioral assay in the mouse when a dose of 5.4 micro mol/kg is administered subcutaneously; type: functional
[19] = test system: Mus musculus; assay: Time of effect in the face-to-face behavioral assay in the mouse when a dose of 54 micro mol/kg is administered subcutaneously; type: functional

T1 sequence (P61169 whole entry): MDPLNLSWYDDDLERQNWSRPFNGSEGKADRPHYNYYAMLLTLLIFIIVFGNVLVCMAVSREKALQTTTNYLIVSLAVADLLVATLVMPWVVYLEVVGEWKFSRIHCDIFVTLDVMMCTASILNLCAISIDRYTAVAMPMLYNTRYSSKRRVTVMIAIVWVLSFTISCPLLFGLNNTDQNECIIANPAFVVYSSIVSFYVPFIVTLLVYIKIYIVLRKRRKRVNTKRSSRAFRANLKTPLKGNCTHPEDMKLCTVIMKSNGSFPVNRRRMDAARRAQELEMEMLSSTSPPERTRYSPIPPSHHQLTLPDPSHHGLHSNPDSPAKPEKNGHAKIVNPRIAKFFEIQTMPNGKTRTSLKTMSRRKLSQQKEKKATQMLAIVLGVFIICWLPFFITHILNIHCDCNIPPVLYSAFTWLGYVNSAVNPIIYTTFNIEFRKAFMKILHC
D(2) dopamine receptor (Homo sapiens, UniProt P14416), sequence (P14416 whole entry): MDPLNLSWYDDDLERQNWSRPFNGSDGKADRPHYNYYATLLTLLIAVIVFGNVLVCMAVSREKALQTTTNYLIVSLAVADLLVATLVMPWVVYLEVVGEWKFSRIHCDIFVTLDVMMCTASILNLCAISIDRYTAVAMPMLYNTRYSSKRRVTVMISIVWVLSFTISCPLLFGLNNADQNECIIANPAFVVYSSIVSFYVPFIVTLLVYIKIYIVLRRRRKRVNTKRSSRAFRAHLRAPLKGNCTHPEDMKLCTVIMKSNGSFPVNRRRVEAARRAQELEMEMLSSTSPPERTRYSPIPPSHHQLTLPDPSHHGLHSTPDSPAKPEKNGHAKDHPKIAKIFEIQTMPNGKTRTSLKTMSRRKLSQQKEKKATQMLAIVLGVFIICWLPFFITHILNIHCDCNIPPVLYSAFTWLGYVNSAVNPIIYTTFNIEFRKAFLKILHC
Sodium-dependent dopamine transporter (Rattus norvegicus), sequence (P23977 whole entry): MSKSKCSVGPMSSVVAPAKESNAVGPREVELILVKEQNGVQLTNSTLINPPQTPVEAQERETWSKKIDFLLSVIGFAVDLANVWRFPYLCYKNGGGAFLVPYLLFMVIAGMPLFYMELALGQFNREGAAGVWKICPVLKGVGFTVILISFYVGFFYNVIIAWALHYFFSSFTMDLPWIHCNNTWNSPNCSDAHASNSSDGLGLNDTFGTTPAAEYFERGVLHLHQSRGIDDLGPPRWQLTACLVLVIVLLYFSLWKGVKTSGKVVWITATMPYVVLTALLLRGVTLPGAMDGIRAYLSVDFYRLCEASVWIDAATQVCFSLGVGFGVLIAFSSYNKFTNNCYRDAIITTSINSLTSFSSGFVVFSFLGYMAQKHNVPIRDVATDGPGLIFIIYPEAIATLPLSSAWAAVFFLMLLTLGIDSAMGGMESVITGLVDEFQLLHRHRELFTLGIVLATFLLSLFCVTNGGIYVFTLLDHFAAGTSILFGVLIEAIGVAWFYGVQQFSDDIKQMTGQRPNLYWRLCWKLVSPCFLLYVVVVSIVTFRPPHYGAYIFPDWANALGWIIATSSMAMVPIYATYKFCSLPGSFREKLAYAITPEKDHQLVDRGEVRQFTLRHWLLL

`COc1cccc2c1C[C@H]1CCN(Cc3ccccc3)[C@@H]1C2` (racemic) was tested. Which Ki [1] did it give?
Its Ki is over 10000 nM.

`COc1cccc2c1C[C@H]1CCN[C@H]1C2` (racemic) was tested. Which IC50 [2] did it give?
Its IC50 is over 1000 nM.

Which Time [3] does the source give for `COc1cccc2c1C[C@H]1CCN(CC3CC3)[C@@H]1C2` (racemic) here?
Its Time is 0.9 s.

And the Time [4]?
Its Time is 1 s.

What about the ED50 [5] of the same compound?
The ED50 was 19 µmol/kg.

And the Max temperature decrease [6]?
The Max temperature decrease was 6.2.

And the Time [7]?
Its Time is 1.5 s.

And the Time [8]?
Its Time is 1.6 s.

What about the Max temperature decrease [9] of the same compound?
The Max temperature decrease was 7.

What about the Time [10] of the same compound?
Its Time is 58 s.

And the Ki [11]?
Its Ki is over 1000 nM.

What about the ED50 [12] of the same compound?
Its ED50 is 25 µmol/kg.

What about the Time [13] of the same compound?
The Time was 177 s.

With `COc1cccc2c1C[C@H]1CCN(CC3CC3)[C@H]1C2` (racemic) as the compound, how does the Ki [1] read?
The Ki was 748 nM.

How did the Ki [1] turn out when `COc1cccc2c1C[C@H]1CCN(Cc3ccccc3)[C@H]1C2` (racemic) was run?
The Ki was 465 nM.

Which results are given for `COc1cccc2c1C[C@H]1CCN[C@@H]1C2` (racemic)?
ED50 [5]: 1.7 µmol/kg; Max temperature decrease [9]: 6.2; IC50 [2]: > 1000 nM; ED50 [12]: > 125 µmol/kg

For `CCCN1CC[C@@H]2Cc3c(O)cccc3C[C@@H]21` (racemic), which Intrinsic activity [14] is on record?
The Intrinsic activity was 61%.

`C=CCN1CC[C@@H]2Cc3c(O)cccc3C[C@H]21` (racemic) was tested. Which Intrinsic activity [14] did it give?
Its Intrinsic activity is 91%.

Which results are given for `C=CCN1CC[C@@H]2Cc3c(cccc3OC)C[C@H]21` (racemic)?
ED50 [15]: > 10.7 µmol/kg and 6.8 µmol/kg; ED50 [16]: inactive

`CCCN1CC[C@@H]2Cc3c(O)cccc3C[C@H]21` (racemic) was tested. Which Intrinsic activity [14] did it give?
The Intrinsic activity was 79%.

How did the Time [17] turn out when `CC(N)Cc1ccccc1.O=S(=O)(O)O` (configuration not stated) [AMPHETAMINE SULFATE] was run?
Its Time is 2.6 s.

What about the Time [18] of the same compound?
Its Time is 2.4 s.

And the Time [19]?
Its Time is 2.9 s.
